Usually IC50 stands for the concentration needed to halve the response being measured. High values mean lower potency, low ones higher potency.

This test has as its target Pandemic 2009 H1N1 influenza A endonuclease (PAN domain, residues 1-204) (Influenza A virus (strain swl A/California/04/2009 H1N1), UniProt C3W5S0). Nature of the test: Endonuclease assay (FAM/MGBNFQ fluorescent probe cleavage by PAN). The test is classed as biochemical, influenza A virus (pandemic 2009 H1N1). As to conditions: endonuclease inhibition; 25 nM endonuclease, 50 nM probe, 37 degrees Celsius, fluorescence change over time. The text has this:
A TaqMan-like oligonucleotide was used containing a 6-carboxy-fluorescein (FAM) fluorophore at the 5′-end followed by 19 nucleotides and a minor groove binding non-fluorescent quencher (MGBNFQ, Applied Biosystems) at the 3′-end. When excited by light at a wavelength of 488 nm, MGBNFQ quenches the fluorescence of FAM via fluorescence resonance energy transfer. If the endonuclease cleaves the oligonucleotide, the quencher is no longer coupled to the fluorophore, and therefore, FAM fluoresces. This assay can be performed in a high-throughput (e.g. 96 well plate) format.
The reaction mixture is set up as a master mix with the buffer, probe, and protein on ice. […] Varioskan Fluorometer (Thermo Scientific), set to an excitation of 488 nm and emission of 518 nm, is used to measure the fluorescence of the samples at 37 degrees Celsius. Fluorescence is measured at various time points (5, 120, and 240 minutes) during the 37 degrees Celsius incubation. Activity/inhibition is calculated based on the change in fluorescence over time using Prism Graphpad non-linear regression analysis.
`O=c1[nH]c2ccccc2c(Br)c1O` [Example 2, 4-bromo-3-hydroxyquinolin-2(1H)-one] showed an IC50 of 53 µM.
The molecule `O=c1[nH]c2cccc(Br)c2cc1O` [Example 3, 5-bromo-3-hydroxyquinolin-2(1H)-one] yielded a concentration for half-maximal inhibition (IC50) of 12.2 µM.
As to `O=c1[nH]c2ccc(Br)cc2cc1O` [Example 4, 6-bromo-3-hydroxyquinolin-2(1H)-one], inhibition was half-maximal at 7.4 µM (IC50).
`O=c1[nH]c2cc(Br)ccc2cc1O` [Example 5, 7-bromo-3-hydroxyquinolin-2(1H)-one] came in with a half-inhibitory concentration (IC50) of 7.6 µM.
Take `O=c1[nH]c2c(Br)cccc2cc1O` [Example 6, 8-bromo-3-hydroxyquinolin-2(1H)-one]: the IC50 stood at 10.6 µM.
For `O=c1[nH]c2ccccc2c(-c2ccc(F)cc2)c1O` [Example 7] the value was 10.8 µM.
For `O=c1[nH]c2cccc(-c3ccc(F)cc3)c2cc1O` [Example 8, 5-(4-fluorophenyl)-3-hydroxyquinolin-2(1H)-one], the IC50 was determined as 3.3 µM.
`O=c1[nH]c2ccc(-c3ccc(F)cc3)cc2cc1O` [Example 9, 6-(4-fluorophenyl)-3-hydroxyquinolin-2(1H)-one] registered an IC50 of 0.56 µM.
`O=c1[nH]c2cc(-c3ccc(F)cc3)ccc2cc1O` [Example 10, 7-(4-fluorophenyl)-3-hydroxyquinolin-2(1H)-one] had an IC50 of 0.56 µM. This counts as sub-micromolar.
`O=c1[nH]c2c(-c3ccc(F)cc3)cccc2cc1O` [Example 11, 8-(4-fluorophenyl)-3-hydroxyquinolin-2(1H)-one]: the half-maximal inhibitory concentration (IC50) is 4.7 µM.
`O=c1[nH]c2cc(-c3ccc(F)cc3)ccc2c(Br)c1O` [Example 12, 4-bromo-7-(4-fluorophenyl)-3-hydroxyquinolin-2(1H)-one] gave a half-inhibitory concentration (IC50) of 1.1 µM.
The molecule `O=c1[nH]c2ccccc2c(-c2ccccc2)c1O` [Example 13, 4-Phenyl-3-hydroxyquinolin-2(1H)-one] showed an IC50 greater than 20 µM.
On to `Cc1c(O)c(=O)[nH]c2ccccc12` [Example 14, 4-Methyl-3-hydroxyquinolin-2(1H)— one], for which the IC50 is greater than 100 µM.
For the molecule `O=c1[nH]c2cc(-c3ccc(F)cc3)ccc2c(-c2ccccc2)c1O` [Example 15, 4-Phenyl-7-(4-fluorophenyl)-3-hydroxyquinolin-2(1H)-one], the IC50 worked out at 2 µM.
As for `Cc1c(O)c(=O)[nH]c2cc(-c3ccc(F)cc3)ccc12` [Example 16], the IC50 was found to be 13.2 µM.

For the origin of these results see US9701638B2, “Therapeutic hydroxyquinolones” (RUTGERS, THE STATE UNIVERSITY OF NEW JERSEY, priority 2012, dated 2017).
